The source of these data is US20240101538A1, “PROTEIN-PROTEIN INTERACTION MODULATORS OF AURORA KINASE A AND THEIR USE IN THE PREVENTION AND/OR TREATMENT OF CANCER” (EBERHARD KARLS UNIVERSITÄT TÜBINGEN, priority 2020, published 2024).

The IC50 is the concentration that inhibits the measured activity by half.

The target of experiment [1] is AURKA (Homo sapiens (Human), UniProt O14965). As to the kind of experiment: Radioisotope filter binding assay (HotSpotSM; ReactionBiology) for AURKA kinase inhibition. It counts as biochemical. The text has this: Table 2 summarizes the EC values of different compounds of this invention determined by colony formation assays on NMP53^−/− and NMCdkn2a^ARF−/− cells, as well as the corresponding IC50 values for the kinase inhibition of AURKA, determined by radioisotope filter binding assay (HotSpotSM; ReactionBiology). Most compounds further show a strong selectivity for NMP53^−/− cells, which is indicated by a lower EC concentration of a particular compound required for inhibiting cell growth of NMP53^−/− cells compared to NMCdkn2a^ARF−/− cells.
AURKA, sequence (O14965 whole entry): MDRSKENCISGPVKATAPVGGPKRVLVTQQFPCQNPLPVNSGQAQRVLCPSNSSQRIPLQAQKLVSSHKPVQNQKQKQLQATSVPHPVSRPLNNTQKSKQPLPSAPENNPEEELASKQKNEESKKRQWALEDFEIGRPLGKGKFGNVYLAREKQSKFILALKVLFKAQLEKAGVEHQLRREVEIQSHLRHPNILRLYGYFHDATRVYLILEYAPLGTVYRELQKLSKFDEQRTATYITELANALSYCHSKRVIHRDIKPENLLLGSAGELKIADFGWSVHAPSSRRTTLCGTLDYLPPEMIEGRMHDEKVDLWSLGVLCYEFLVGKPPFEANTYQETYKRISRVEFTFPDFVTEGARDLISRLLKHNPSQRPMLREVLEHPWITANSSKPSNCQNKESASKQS

The subject of experiment [2] is NMCdkn2a^ARF−/− cells. Description: Colony formation assay on NMCdkn2a^ARF−/− cells. It counts as cell-based, murine. The conditions noted are these: 5 days, read-out: EC (NMCdkn2a^ARF−/−). The text has this:
(§1) To evaluate the effect of small molecules equipped with R-spine interacting moieties, the inventors screened a focused library of proprietary p38a MAP-Kinase inhibitors which were equipped with R-spine interacting pharmacophores. To this end, the inventors utilized a screening system as developed in Dauch et al.^2 The screening system is based on colony formation assays of cell lines isolated from Nras-driven, Trp53-deficient murine HCCs, whose development is dependent on MYC (NMP53^−/− cells), as well as Nras-driven, Cdkn2a^ARF-deficient murine HCCs, which develop independently of MYC (NMCdkn2a^ARF−/− cells). Importantly, NMP53^−/− cells are sensitive to AURKA inhibitors, which induce a conformational shift in AURKA, whereas NMCdkn2a^ARF−/− are not sensitive to such compounds.
(§2) For Colony Formation Assays, cells were seeded at a density of 50 000 cells per 6 well and next day treated with a 2-fold dilution series of the indicated compounds or the highest corresponding DMSO concentration as control. After 5 days, the cells were fixed with a 10% formaldehyde solution for 30 min, washed once with water, stained with a 0.5% crystal violet solution for 30 min and washed twice with water. The compounds effective concentration (EC) was determined according to the lowest concentration in the dilution series, that inhibited cell growth substantially. The resulting benzamide containing hit structure 1, with a twofold selectivity towards NMP53^−/− cells (effective concentration on NMP53^−/− cells (EC): 2 μM, EC on Cdkn2a^ARF−/−: 4 μM, FIG. 1), served as the inventors' starting point for further compound development.

Experiment [3] concerns NMP53^−/− cells. Description: Colony formation assay on NMP53^−/− cells. It counts as cell-based, murine. The conditions noted are these: colony formation assay; for minimal effective concentration: 5 days, read-out: EC (NMP53^−/−).
Text: as §1, §2

[4] abbreviates: Mus musculus, 120 h, lowest concentration of 2-fold dilution series that inhibited cell growth substantially.

Like-named read-outs stand apart in the source and are kept apart here.

For `O=C(CCc1ccccc1)Nc1cc(NCc2ccc(-c3cn[nH]c3)cc2)ccc1F` [Compound 2a, N-(5-((4-(1H-pyrazole-4-yl)benzyl)amino)-2-fluorophenyl)-3-phenylpropanamide], the IC50 in experiment [1] came to 6.9 µM. Further, the minimal effective concentration in experiment [2] is greater than 4 µM; in experiment [2] (setting [4]) it was 2 µM; in experiment [3] (setting [4]), 0.5 µM; in experiment [3], greater than 4 µM. For the same compound, the “selectivity for NMP53^−/− cells” value in experiment [3] (NMP53^−/− versus NMCdkn2a^ARF−/− cells) is listed as 4 fold.

`O=C(Cc1ccccc1)Nc1cc(NCc2cc(-c3cc4cccnc4[nH]3)ccn2)ccc1F` [Compound 18c, N-(5-(((4-(1H-Pyrrolo[2,3-b]pyridin-2-yl)pyridin-2-yl)methyl)amino)-2-fluorophenyl)-2-phenylacetamide] showed an IC50 in experiment [1] greater than 10 µM. For the same compound, the minimal effective concentration was 0.5 µM in experiment [2] (Mus musculus, 120 h) and 0.25 µM in experiment [3] (Mus musculus, 120 h).

Regarding `O=C(CCc1ccccc1)Nc1cc(NCc2ccc(-c3cn[nH]c3)cc2)ccc1F` [Compound 95b, N-(5-((4-(1H-Pyrazol-4-yl)benzyl)amino)-2-fluorophenyl)-3-phenylpropanamide], the IC50 in experiment [1] came to 0.0079 µM. For the same compound, the minimal effective concentration in experiment [2] (Mus musculus, 120 h) is 2 µM; in experiment [3], 0.5 µM.

In turn, `Cn1cc(-c2ccc(CNc3ccc(F)c(NC(=O)CCc4ccccc4)c3)cc2)cn1` [Compound 97, N-(2-fluoro-5-((4-(1-methyl-1H-pyrazol-4-yl)benzyl)amino)phenyl)-3-phenylpropanamide] gave an IC50 in experiment [1] of 0.532 µM. In addition, the minimal effective concentration in experiment [2] (Mus musculus, 120 h) stood at 1 µM; in experiment [3] (Mus musculus, 120 h) it was 0.25 µM.

For `Cn1cc(-c2ccc(CNc3ccc(F)c(NC(=O)CCc4ccoc4)c3)cc2)cn1` [Compound 107n, N-(2-fluoro-5-((4-(1-methyl-1H-pyrazol-4-yl)benzyl)amino)phenyl)-3-(furan-3-yl)propanamide], the IC50 in experiment [1] was greater than 10 µM. For the same compound, the minimal effective concentration in experiment [2] (Mus musculus, 120 h) is greater than 0.25 µM; in experiment [3] (Mus musculus, 120 h), 0.062 µM.

In experiment [1], `Cn1cc(-c2ccc(CNc3ccc(F)c(NC(=O)CCc4cccs4)c3)cc2)cn1` [Compound 107o, N-(2-fluoro-5-((4-(1-methyl-1H-pyrazol-4-yl)benzyl)amino)phenyl)-3-(thiophen-2-yl)propanamide] gave an IC50 greater than 10 µM. For the same compound, the minimal effective concentration turned out to be 1 µM in experiment [2] (Mus musculus, 120 h) and 0.125 µM in experiment [3] (Mus musculus, 120 h).

Take `Cn1cc(-c2ccc(CNc3ccc(F)c(NC(=O)CCc4ccsc4)c3)cc2)cn1` [Compound 107p, N-(2-fluoro-5-((4-(1-methyl-1H-pyrazol-4-yl)benzyl)amino)phenyl)-3-(thiophen-3-yl)propanamide]: in experiment [1], the IC50 is greater than 10 µM. Also, the minimal effective concentration is greater than 0.25 µM in experiment [2] (Mus musculus, 120 h) and 0.062 µM in experiment [3] (Mus musculus, 120 h).

Turning to `Cn1cc(-c2ccc(CNc3ccc(F)c(NC(=O)/C=C/c4ccco4)c3)cc2)cn1` [Compound 107r, (E)-N-(2-fluoro-5-((4-(1-methyl-1H-pyrazol-4-yl)benzyl)amino)phenyl)-3-(furan-2-yl)acrylamide], in experiment [1], the IC50 was greater than 10 µM. The minimal effective concentration is greater than 0.25 µM in experiment [2] (Mus musculus, 120 h) and 0.062 µM in experiment [3] (Mus musculus, 120 h).

`Cn1cc(-c2ccc(CNc3ccc(F)c(NC(=O)C=Cc4ccccc4)c3)cc2)cn1` [Compound 107s, N-(2-fluoro-5-((4-(1-methyl-1H-pyrazol-4-yl)benzyl)amino)phenyl)cinnamamide] yielded an IC50 in experiment [1] greater than 10 µM. Also, the minimal effective concentration in experiment [2] (Mus musculus, 120 h) is greater than 1 µM; in experiment [3] (Mus musculus, 120 h), 0.5 µM.

As for `Cn1cc(-c2ccc(CNc3ccc(F)c(NC(=O)CCc4ccco4)c3)cn2)cn1` [Compound 128e, N-(2-fluoro-5-(((6-(1-methyl-1H-pyrazol-4-yl)pyridin-3-yl)methyl)amino)phenyl)-3-(furan-2-yl)propanamide], the minimal effective concentration was greater than 2 µM in experiment [2] (Mus musculus, 120 h) and 0.25 µM in experiment [3] (Mus musculus, 120 h).

Turning to `Cn1cc(-c2ccc(CNc3ccc(F)c(NC(=O)CCc4ccccc4)c3)nc2)cn1` [Compound 130, N-(2-fluoro-5-(((5-(1-methyl-1H-pyrazol-4-yl)pyridin-2-yl)methyl)amino)phenyl)-3-phenylpropanamide], the minimal effective concentration in experiment [2] (Mus musculus, 120 h) is greater than 1 µM; in experiment [3] (Mus musculus, 120 h), 0.5 µM.

Turning to `Cc1noc(C)c1-c1ccc(CNc2ccc(F)c(NC(=O)CCc3ccco3)c2)cc1` [Compound 139, N-(5-((4-(3,5-Dimethylisoxazol-4-yl)benzyl)amino)-2-fluorophenyl)-3-(furan-2-yl)propanamide], the minimal effective concentration in experiment [2] (Mus musculus, 120 h) stood at 1 µM; in experiment [3] (Mus musculus, 120 h) it was 0.5 µM.

`Nc1n[nH]cc1-c1ccc(CNc2ccc(F)c(NC(=O)CCc3ccco3)c2)cc1` [Compound 144, N-(5-((4-(3-Amino-1H-pyrazol-4-yl)benzyl)amino)-2-fluorophenyl)-3-(furan-2-yl)propanamide]: the minimal effective concentration in experiment [2] (Mus musculus, 120 h) is greater than 1 µM; in experiment [3] (Mus musculus, 120 h), 0.25 µM.

In the case of `Cn1cc(-c2ccc(CNc3ccc(F)c(NC(=O)CCc4ccco4)c3)cc2)c(N)n1` [Compound 145, N-(5-((4-(3-Amino-1-methyl-1H-pyrazol-4-yl)benzyl)amino)-2-fluorophenyl)-3-(furan-2-yl)propanamide], the minimal effective concentration in experiment [2] (Mus musculus, 120 h) is greater than 1 µM; in experiment [3] (Mus musculus, 120 h) it was 0.25 µM.

For the compound `Cn1ncc(-c2ccc(CNc3ccc(F)c(NC(=O)CCc4ccco4)c3)cc2)c1N` [Compound 146, N-(5-((4-(5-Amino-1-methyl-1H-pyrazol-4-yl)benzyl)amino)-2-fluorophenyl)-3-(furan-2-yl)propanamide], the minimal effective concentration is greater than 1 µM in experiment [2] (Mus musculus, 120 h) and 0.125 µM in experiment [3] (Mus musculus, 120 h).

In the case of `Cn1ccc(Nc2ccc(CNc3ccc(F)c(NC(=O)CCc4ccco4)c3)cc2)n1` [Compound 155, N-(2-fluoro-5-((4-((1-methyl-1H-pyrazol-3-yl)amino)benzyl)amino)phenyl)-3-(furan-2-yl)propanamide], the minimal effective concentration is greater than 1 µM in experiment [2] (Mus musculus, 120 h) and 0.25 µM in experiment [3] (Mus musculus, 120 h).

For `CC(=O)n1cc(-c2ccc(CNc3ccc(F)c(NC(=O)CCc4ccco4)c3)cc2)cn1` [Compound 164, N-(5-((4-(1-Acetyl-1H-pyrazol-4-yl)benzyl)amino)-2-fluorophenyl)-3-(furan-2-yl)propanamide], the minimal effective concentration in experiment [2] (Mus musculus, 120 h) was greater than 1 µM; in experiment [3] (Mus musculus, 120 h), 0.125 µM.

For `NCCn1cc(-c2ccc(CNc3ccc(F)c(NC(=O)CCc4ccco4)c3)cc2)cn1` [Compound 167, N-(5-((4-(1-(2-Aminoethyl)-1H-pyrazol-4-yl)benzyl)amino)-2-fluorophenyl)-3-(furan-2-yl)propanamide], the minimal effective concentration in experiment [2] (Mus musculus, 120 h) turned out to be 1 µM; in experiment [3] (Mus musculus, 120 h), 0.5 µM.
